Experimental data from ChEMBL document CHEMBL1201862, “PubChem BioAssay data set” (2004).
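Method: 48-hour compound exposure of cells in 96-well plates, five concentrations, linear interpolation of endpoints. Abbreviation: GI50, concentration required for 50% inhibition of growth.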 Active and inactive are the calls of the source. No stated cut-off is given here; in the data, active = GI50 up to about 1.1 µM and inactive = higher.

Tests used:
Assay in all cases: growth of human tumour cells (NCI), 48 h
NCI-H460 = test system: NCI-H460
NCI-H23 = test system: NCI-H23
SW-620 = test system: SW-620
SF-268 = test system: SF-268
DMS-273 = test system: DMS-273
EKVX = test system: EKVX
SNB-78 = test system: SNB-78
SF-295 = test system: SF-295
OVCAR-4 = test system: OVCAR-4
NCI-H522 = test system: NCI-H522
SK-OV-3 = test system: SK-OV-3
Malme-3M = test system: Malme-3M
UO-31 = test system: UO-31
HCT-15 = test system: HCT-15

Compound	GI50 (NCI-H460)	GI50 (NCI-H23)	GI50 (SW-620)	GI50 (SF-268)	GI50 (DMS-273)	GI50 (EKVX)	GI50 (SNB-78)	GI50 (SF-295)	GI50 (OVCAR-4)	GI50 (NCI-H522)	GI50 (SK-OV-3)	GI50 (Malme-3M)	GI50 (UO-31)	GI50 (HCT-15) [µM]
O=c1c2cccnc2ncn1CCCN1CCOCC1	> 100 µM (inactive)	> 100 µM (inactive)	> 100 µM (inactive)	> 100 µM (inactive)	> 100 µM (inactive)	> 100 µM (inactive)	> 100 µM (inactive)	> 100 µM (inactive)	> 100 µM (inactive)	> 100 µM (inactive)	> 100 µM (inactive)	> 100 µM (inactive)	> 100 µM (inactive)	–
c1ccc2c(c1)Cc1c(Cc3csc4ccccc34)ccc3cccc-2c13	> 100 µM (inactive)	> 100 µM (inactive)	> 100 µM (inactive)	> 100 µM (inactive)	> 100 µM (inactive)	> 100 µM (inactive)	94.4 µM (inactive)	> 100 µM (inactive)	54 µM (inactive)	41.3 µM (inactive)	–	> 100 µM (inactive)	> 100 µM (inactive)	> 100
O=[N+]([O-])C(=C1c2ccccc2-c2ccccc21)[N+](=O)[O-]	48 µM (inactive)	> 10 µM (inactive)	64.7 µM (inactive)	20.9 µM (inactive)	> 10 µM (inactive)	> 100 µM (inactive)	> 100 µM (inactive)	> 10 µM (inactive)	> 100 µM (inactive)	44.1 µM (inactive)	–	–	52.4 µM (inactive)	> 10
CN(CCCN1C(=O)c2cccc3cc([N+](=O)[O-])cc(c23)C1=O)CCN(C)CCCN1C(=O)c2cccc3cc([N+](=O)[O-])cc(c23)C1=O	6.73 µM (inactive)	> 39.3 µM (inactive)	2.48 µM (inactive)	29 µM (inactive)	11.4 µM (inactive)	> 39.3 µM (inactive)	> 39.3 µM (inactive)	22.3 µM (inactive)	27.4 µM (inactive)	> 39.3 µM (inactive)	> 39.3 µM (inactive)	25.9 µM (inactive)	–	32.6
CCCc1n[nH]c(CCC(=O)N(Cc2ccccc2)Cc2ccccc2)c1CC	> 100 µM (inactive)	> 100 µM (inactive)	> 100 µM (inactive)	> 100 µM (inactive)	> 100 µM (inactive)	> 100 µM (inactive)	–	> 100 µM (inactive)	> 100 µM (inactive)	> 100 µM (inactive)	> 100 µM (inactive)	> 100 µM (inactive)	> 100 µM (inactive)	> 100
COC(=O)C1C(C(=O)OC)C2(OC)c3ccccc3-c3ccccc3C12 (stereo unspecified)	34.4 µM (inactive)	27.6 µM (inactive)	48.1 µM (inactive)	45.1 µM (inactive)	16.7 µM (inactive)	28.7 µM (inactive)	–	38.2 µM (inactive)	48.2 µM (inactive)	20.3 µM (inactive)	80 µM (inactive)	47.9 µM (inactive)	31 µM (inactive)	28.4
C[n+]1ccc(Nc2ccc(NC(=O)c3ccc(Nc4cc[n+](C)c5ccc([N+](=O)[O-])cc45)cc3[N+](=O)[O-])cc2)cc1	23.7 µM (inactive)	29.7 µM (inactive)	–	30.9 µM (inactive)	27.2 µM (inactive)	47.6 µM (inactive)	–	27.8 µM (inactive)	34.5 µM (inactive)	13.8 µM (inactive)	57.8 µM (inactive)	19.5 µM (inactive)	47.6 µM (inactive)	61.2
COc1ccc(/C=C/c2cc(OC)c(OC(C)=O)c(OC)c2)cc1	22.1 µM (inactive)	20.7 µM (inactive)	–	29.1 µM (inactive)	31.2 µM (inactive)	28.1 µM (inactive)	22 µM (inactive)	–	45.9 µM (inactive)	19.5 µM (inactive)	37.3 µM (inactive)	26.3 µM (inactive)	20.3 µM (inactive)	26.2
